Structures can show the parent of a compound that is named as a salt. Values belong to the compound of their own block, whether it stands above or below them.
What was measured:
rat nNOS (rnNOS) = rat nNOS (rnNOS) (Rattus norvegicus, UniProt P29476)
[1] = system: panel of 45 pharmacologically relevant CNS targets and receptors; assay: PDSP off-target radioligand displacement screen; assay type: binding; conditions: for fraction of concerning or moderate hits: PDSP panel; for PDSP targets classified insignificant / PDSP targets classified weak / PDSP targets classified Concerning / PDSP targets classified moderate: number of 45 targets; for PDSP targets classified insignificant: <50% bound at 10 μM; for PDSP targets classified weak: >300 nM; for PDSP targets classified moderate: 100–300 nM
H2 receptor = H2 receptor (Homo sapiens, UniProt P25021); assay: PDSP off-target binding, H2 receptor
H2 receptor, sequence (P25021 whole entry): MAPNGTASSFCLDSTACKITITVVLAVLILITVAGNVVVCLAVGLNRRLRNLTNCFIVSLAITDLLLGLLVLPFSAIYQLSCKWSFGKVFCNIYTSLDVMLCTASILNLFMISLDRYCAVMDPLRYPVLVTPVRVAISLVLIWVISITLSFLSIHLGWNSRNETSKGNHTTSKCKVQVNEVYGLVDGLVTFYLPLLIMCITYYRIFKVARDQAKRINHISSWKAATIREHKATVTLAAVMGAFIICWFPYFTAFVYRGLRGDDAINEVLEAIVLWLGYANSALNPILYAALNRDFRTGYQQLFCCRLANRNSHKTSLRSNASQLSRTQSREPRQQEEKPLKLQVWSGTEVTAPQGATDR

human eNOS (heNOS) = human eNOS (heNOS) (Homo sapiens, UniProt P29474)
human iNOS (hiNOS) = human iNOS (hiNOS) (Homo sapiens, UniProt P35228); conditions: read-out: Ki hiNOS; purified human iNOS; Ki from IC50 (Cheng-Prusoff)
D597N rnNOS = D597N rnNOS (Rattus norvegicus, UniProt P29476, D597N)
[2] = from PAMPA-BBB Pe
M336V/D597N rnNOS = M336V/D597N rnNOS (Rattus norvegicus, UniProt P29476, D597N/M336V); conditions: M336V/D597N vs D597N rnNOS
M336V/D597N rnNOS, sequence (P29476 whole entry M336V/D597N): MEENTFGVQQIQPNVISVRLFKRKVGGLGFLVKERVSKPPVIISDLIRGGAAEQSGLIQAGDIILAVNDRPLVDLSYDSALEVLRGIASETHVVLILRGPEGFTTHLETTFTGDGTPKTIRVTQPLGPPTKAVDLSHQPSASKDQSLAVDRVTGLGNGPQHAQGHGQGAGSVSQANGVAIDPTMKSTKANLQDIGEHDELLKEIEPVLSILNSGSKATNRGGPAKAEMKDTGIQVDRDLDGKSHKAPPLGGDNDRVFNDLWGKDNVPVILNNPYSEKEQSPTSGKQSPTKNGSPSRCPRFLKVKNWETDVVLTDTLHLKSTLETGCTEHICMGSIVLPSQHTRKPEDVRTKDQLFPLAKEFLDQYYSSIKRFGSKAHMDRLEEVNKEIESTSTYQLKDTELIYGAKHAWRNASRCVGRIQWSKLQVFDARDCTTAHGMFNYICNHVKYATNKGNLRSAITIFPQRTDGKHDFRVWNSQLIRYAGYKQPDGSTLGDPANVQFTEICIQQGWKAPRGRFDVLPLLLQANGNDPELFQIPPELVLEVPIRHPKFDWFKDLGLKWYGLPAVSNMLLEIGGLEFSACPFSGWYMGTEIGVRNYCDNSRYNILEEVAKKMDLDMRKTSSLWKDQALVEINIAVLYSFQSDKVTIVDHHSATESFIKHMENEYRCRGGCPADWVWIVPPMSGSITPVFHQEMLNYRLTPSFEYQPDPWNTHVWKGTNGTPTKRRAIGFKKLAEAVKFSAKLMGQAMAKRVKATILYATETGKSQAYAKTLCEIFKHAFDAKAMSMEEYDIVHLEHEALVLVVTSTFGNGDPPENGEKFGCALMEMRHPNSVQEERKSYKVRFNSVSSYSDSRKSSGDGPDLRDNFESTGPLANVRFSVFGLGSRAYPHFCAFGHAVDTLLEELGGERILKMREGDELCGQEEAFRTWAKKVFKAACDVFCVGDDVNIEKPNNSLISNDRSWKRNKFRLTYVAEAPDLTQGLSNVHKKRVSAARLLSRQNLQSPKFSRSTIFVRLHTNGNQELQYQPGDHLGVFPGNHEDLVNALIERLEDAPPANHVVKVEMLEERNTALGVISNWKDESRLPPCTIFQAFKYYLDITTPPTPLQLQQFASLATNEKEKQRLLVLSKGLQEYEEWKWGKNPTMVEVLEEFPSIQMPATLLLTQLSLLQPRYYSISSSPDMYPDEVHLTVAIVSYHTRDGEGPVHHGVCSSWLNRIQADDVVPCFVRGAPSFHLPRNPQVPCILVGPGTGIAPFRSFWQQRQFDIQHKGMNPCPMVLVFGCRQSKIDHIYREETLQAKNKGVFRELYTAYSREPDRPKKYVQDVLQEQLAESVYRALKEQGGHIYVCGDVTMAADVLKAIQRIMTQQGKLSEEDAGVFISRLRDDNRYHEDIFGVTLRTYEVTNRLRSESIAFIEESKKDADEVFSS

H3 receptor = H3 receptor (Homo sapiens, UniProt Q9Y5N1); assay: PDSP off-target binding, H3 receptor
H3 receptor, sequence (Q9Y5N1 whole entry): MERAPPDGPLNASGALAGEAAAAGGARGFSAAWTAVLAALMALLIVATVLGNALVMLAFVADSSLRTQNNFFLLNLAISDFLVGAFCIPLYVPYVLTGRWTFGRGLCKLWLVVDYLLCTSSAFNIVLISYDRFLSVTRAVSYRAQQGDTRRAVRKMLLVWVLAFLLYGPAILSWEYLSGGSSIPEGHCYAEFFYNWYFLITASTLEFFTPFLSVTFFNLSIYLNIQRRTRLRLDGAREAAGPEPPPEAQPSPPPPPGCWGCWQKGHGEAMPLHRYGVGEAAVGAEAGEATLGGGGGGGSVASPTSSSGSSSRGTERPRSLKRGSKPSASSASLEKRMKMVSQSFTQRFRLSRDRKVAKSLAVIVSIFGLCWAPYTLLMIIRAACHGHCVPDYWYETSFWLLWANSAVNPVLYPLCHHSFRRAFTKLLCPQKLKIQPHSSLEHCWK

less potent than 12 in rnNOS (rat nNOS (rnNOS); relative to 12): approximately 5 fold
Compound: Cc1cc(N)nc2cc(-c3cncc(CN)c3)ccc12.Cl.Cl.Cl [compound 15, 7-(5-(Aminomethyl)pyridin-3-yl)-4-methylquinolin-2-amine Trihydrochloride]

loss in rnNOS activity (rat nNOS (rnNOS); relative to 5): > 2 fold
Compound: CNCCc1ccc(-c2ccc3c(C)cc(N)nc3c2)cc1.Cl.Cl [compound 6, 4-Methyl-7-(4-(2-(methylamino)ethyl)phenyl)quinolin-2-amine Dihydrochloride]

Compound: Cc1cc(N)nc2cc(-c3ccc(OCc4ccccn4)c(CN)c3)ccc12 [compound 32, 7-(3-(Aminomethyl)-4-(pyridin-2-ylmethoxy)phenyl)-4-methylquinolin-2-amine Trihydrochloride]
fraction of concerning or moderate hits [1]: 11 /45 | PDSP targets classified insignificant [1]: 12 | PDSP targets classified weak [1]: 22 | PDSP targets classified Concerning ([1]; […]): 4

Compound: 7-(3-(2-Aminoethyl)phenyl)-4-methylquinolin-2-amine Dihydrochloride [compound 12]
off-target binding class, H2 receptor (H2 receptor): concerning (concerning (Ki < 100 nM, or <~2 × nNOS Ki value)) | Ki (human eNOS (heNOS); read-out: Ki heNOS, purified human eNOS, Ki calculated from IC50): 52.6 µM | Ki (human iNOS (hiNOS)): 29.9 µM | Ki (D597N rnNOS; read-out: Ki D597N rnNOS, single mutant (SM) of rat nNOS): 0.416 µM | decrease in potency, D597N mutant (D597N rnNOS; versus wild type): 8 fold | prediction (CNS) [2]: CNS (+) (classified as a “CNS (+)” molecule if its effective permeability (Pe) in this assay is larger than 4.0 × 10^–6 cm s^–1) | % remaining at 60 min (- NADPH) (HLM without NADPH, pH 7.4): 87% | % remaining at 60 min (Buffer) (buffer control): 67% | CLint (in vitro intrinsic clearance, HLM): 8 mL/min/kg

Compound: Cc1cc(N)nc2cc(-c3ccc(OCc4cncs4)c(CN)c3)ccc12 [compound 37, 7-(3-(Aminomethyl)-4-(thiazol-5-ylmethoxy)phenyl)-4-methylquinolin-2-amine Trihydrochloride]
prediction (CNS) [2]: CNS (+) (classified as a “CNS (+)” molecule if its effective permeability (Pe) in this assay is larger than 4.0 × 10^–6 cm s^–1)

Compound: Cc1cc(N)nc2cc(-c3ccc(OCc4cocn4)c(CN)c3)ccc12 [compound 36, 7-(3-(Aminomethyl)-4-(oxazol-4-ylmethoxy)phenyl)-4-methylquinolin-2-amine Trihydrochloride]
increased potency against the double mutant (versus the single mutant) (M336V/D597N rnNOS): 5 fold

prediction (CNS) [2]: CNS (−)
Compound: NCCc1ccc(O)c(O)c1 [dopamine, reference compound]

Compound: Cc1cc(N)nc2cc(-c3ccc(CN)cc3)ccc12.Cl.Cl [compound 7, 7-(4-(Aminomethyl)phenyl)-4-methylquinolin-2-amine Dihydrochloride]
increase in rnNOS activity (rat nNOS (rnNOS); relative to 5): 2.3 fold | prediction (CNS) [2]: CNS (+) (classified as a “CNS (+)” molecule if its effective permeability (Pe) in this assay is larger than 4.0 × 10^–6 cm s^–1)

Compound: Cc1cc(N)nc2cc(-c3ccc(OCc4cccnc4)c(CN)c3)ccc12 [compound 33, 7-(3-(Aminomethyl)-4-(pyridin-3-ylmethoxy)phenyl)-4-methylquinolin-2-amine Trihydrochloride]
fraction of concerning or moderate hits [1]: 8 /45 | PDSP targets classified moderate [1]: 5 | PDSP targets classified insignificant [1]: 20 | PDSP targets classified weak [1]: 17 | PDSP targets classified Concerning ([1]; […]): 3 | improvement in binding affinity toward heNOS (human eNOS (heNOS); 33 versus 32): 3 fold | prediction (CNS) [2]: CNS (+) (classified as a “CNS (+)” molecule if its effective permeability (Pe) in this assay is larger than 4.0 × 10^–6 cm s^–1)

Compound: Cc1cc(N)nc2cc(-c3ccc(OCC4CC4)c(CN)c3)ccc12 [compound 29, 7-(3-(Aminomethyl)-4-(cyclopropylmethoxy)phenyl)-4-methylquinolin-2-amine Dihydrochloride]
PDSP targets classified moderate [1]: 4 | PDSP targets classified insignificant [1]: 13 | PDSP targets classified weak [1]: 27 | PDSP targets classified Concerning ([1]; Ki < 100 nM): 1 | off-target binding class, H3 receptor (H3 receptor): concerning (concerning (Ki < 100 nM, or <~2 × nNOS Ki value)) | prediction (CNS) [2]: CNS (+) (classified as a “CNS (+)” molecule if its effective permeability (Pe) in this assay is larger than 4.0 × 10^–6 cm s^–1)
